From US9580416B2, “Inhibitors of Bruton's tyrosine kinase” (PHARMACYCLICS LLC, priority 2014, dated 2017)
pIC50: −log10 of the molar value.

Key:
Format in all cases: biochemical
EGFR = EGFR (Homo sapiens, UniProt P00533); experiment: Inhibition of a panel of kinases, in vitro HotSpot kinase assay: EGFR
Protocol: The degree of inhibition of a panel of kinases is determined using the in vitro HotSpot kinase assay (purified enzymes, ^33P-ATP, an appropriate substrate and 1 uM ATP).

Btk = Btk (Homo sapiens, UniProt Q06187); experiment: Btk kinase activity, TR-FRET assay; conditions: read-out: Btk (IC50)
Outline: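 Enzyme (Btk 0.5 nM; Lck 6 nM) reacted 1 h with inhibitor, ATP at Km and biotin-peptide substrate in pH 7.4 buffer, 10% DMSO. Phosphopeptide detected by Eu-p-Tyr100 antibody plus streptavidin-APC (665/615 nm). IC50 calculated from fitted Ki(app) via ATP/Km correction plus half total enzyme.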

Lck = Lck (Homo sapiens, UniProt P06239); experiment: Lck kinase activity, TR-FRET assay; conditions: read-out: LCK (IC50)
Protocol: Btk kinase activity is determined using a time-resolved fluorescence resonance energy transfer (TR-FRET) methodology. Measurements are performed in a reaction volume of 50 μL using 96-well assay plates. Kinase enzyme, inhibitor, ATP (at the Km for the kinase), and 1 […] (Biotin-AVLESEEELYSSARQ-NH2) are incubated in a reaction buffer composed of 20 mM Tris, 50 mM NaCl, MgCl2 (5-25 mM depending on the kinase), MnCl2 (0-10 mM), 1 mM DTT, 0.1 mM EDTA, 0.01% bovine serum albumin, 0.005% Tween-20, and 10% DMSO at pH 7.4 for one hour. The reaction is quenched by the addition of 1.2 equivalents of EDTA (relative to divalent cation) in 25 μL of 1× Lance buffer (Perkin-Elmer). Streptavidin-APC (Perkin-Elmer) and Eu-labeled p-Tyr100 antibody (Perkin-Elmer) in 1× Lance buffer are added in a 25 μL volume to give final concentrations of 100 nM and 2.5 nM, respectively, and the mixture is allowed to incubate for one hour. The TR-FRET signal is measured on a multimode plate reader with an excitation wavelength (λEx) of 330 nm and detection wavelengths (λEm) of 615 and 665 nm. Activity is determined by the ratio of the fluorescence at 665 nm to that at 615 nm. For each compound, enzyme activity is measured at various concentrations of compound. Negative control reactions are performed in the absence of inhibitor in replicates of six, and two no-enzyme controls are used to determine baseline fluorescence levels. Inhibition constants, Ki(app), ware obtained using the program BatchKi (Kuzmic et al. (2000), Anal. Biochem. 286:45-50). IC50s are obtained according to the equation: IC50={Ki(app)/(1+[ATP]/Km^ATP)}+[E]total/2;
For all kinases, [ATP]=Km^ATP, [Btk]total=0.5 nM and [Lck]total=6 nM.

Sequence of Btk (Q06187 whole entry): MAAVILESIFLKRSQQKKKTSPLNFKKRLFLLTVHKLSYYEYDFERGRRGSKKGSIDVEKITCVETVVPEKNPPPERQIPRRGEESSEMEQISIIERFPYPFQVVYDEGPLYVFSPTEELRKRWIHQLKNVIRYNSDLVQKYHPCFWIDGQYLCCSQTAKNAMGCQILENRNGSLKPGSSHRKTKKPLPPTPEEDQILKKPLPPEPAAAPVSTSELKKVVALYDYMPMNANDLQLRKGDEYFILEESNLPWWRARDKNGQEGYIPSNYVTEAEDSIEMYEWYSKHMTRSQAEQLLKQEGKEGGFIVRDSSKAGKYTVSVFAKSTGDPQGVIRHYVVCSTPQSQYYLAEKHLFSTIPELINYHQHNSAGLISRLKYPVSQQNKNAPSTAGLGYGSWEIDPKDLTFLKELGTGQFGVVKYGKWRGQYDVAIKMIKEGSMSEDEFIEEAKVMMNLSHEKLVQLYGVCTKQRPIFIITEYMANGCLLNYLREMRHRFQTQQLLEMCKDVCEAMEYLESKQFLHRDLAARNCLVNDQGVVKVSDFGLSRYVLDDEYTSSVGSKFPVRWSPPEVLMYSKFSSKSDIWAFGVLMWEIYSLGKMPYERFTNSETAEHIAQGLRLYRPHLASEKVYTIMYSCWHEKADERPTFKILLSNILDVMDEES
Sequence of EGFR (P00533 25-1210): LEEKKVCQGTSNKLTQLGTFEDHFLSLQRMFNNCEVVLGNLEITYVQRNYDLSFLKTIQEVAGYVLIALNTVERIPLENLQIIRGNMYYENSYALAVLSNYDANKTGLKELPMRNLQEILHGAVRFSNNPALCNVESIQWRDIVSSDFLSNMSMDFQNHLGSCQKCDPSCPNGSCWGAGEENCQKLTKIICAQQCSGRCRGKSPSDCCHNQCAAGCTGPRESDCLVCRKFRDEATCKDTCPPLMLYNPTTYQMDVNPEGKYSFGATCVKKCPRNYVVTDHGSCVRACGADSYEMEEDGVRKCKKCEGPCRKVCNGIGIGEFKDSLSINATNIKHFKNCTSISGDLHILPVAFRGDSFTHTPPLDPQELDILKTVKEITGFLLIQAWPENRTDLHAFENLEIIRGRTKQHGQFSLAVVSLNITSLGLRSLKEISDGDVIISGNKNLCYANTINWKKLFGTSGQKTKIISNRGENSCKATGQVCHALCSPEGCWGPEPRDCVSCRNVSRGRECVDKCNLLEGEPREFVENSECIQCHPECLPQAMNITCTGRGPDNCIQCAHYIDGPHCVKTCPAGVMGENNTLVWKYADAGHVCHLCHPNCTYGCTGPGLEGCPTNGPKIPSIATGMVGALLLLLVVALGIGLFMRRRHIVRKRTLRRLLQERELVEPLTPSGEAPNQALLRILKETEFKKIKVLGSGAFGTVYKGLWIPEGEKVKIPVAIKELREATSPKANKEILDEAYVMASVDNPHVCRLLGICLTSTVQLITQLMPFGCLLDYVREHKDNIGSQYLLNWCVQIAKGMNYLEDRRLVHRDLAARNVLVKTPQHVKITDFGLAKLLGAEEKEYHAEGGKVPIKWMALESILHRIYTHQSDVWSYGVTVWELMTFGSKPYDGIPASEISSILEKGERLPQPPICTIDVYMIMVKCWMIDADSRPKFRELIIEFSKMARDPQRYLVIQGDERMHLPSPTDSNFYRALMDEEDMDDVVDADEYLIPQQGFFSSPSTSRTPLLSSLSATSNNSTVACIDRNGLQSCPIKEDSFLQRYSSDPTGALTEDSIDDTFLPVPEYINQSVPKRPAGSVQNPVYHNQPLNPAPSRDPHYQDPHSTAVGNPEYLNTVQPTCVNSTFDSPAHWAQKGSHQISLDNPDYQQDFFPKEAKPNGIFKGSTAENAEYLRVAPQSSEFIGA
Sequence of Lck (P06239 whole entry, species assumed): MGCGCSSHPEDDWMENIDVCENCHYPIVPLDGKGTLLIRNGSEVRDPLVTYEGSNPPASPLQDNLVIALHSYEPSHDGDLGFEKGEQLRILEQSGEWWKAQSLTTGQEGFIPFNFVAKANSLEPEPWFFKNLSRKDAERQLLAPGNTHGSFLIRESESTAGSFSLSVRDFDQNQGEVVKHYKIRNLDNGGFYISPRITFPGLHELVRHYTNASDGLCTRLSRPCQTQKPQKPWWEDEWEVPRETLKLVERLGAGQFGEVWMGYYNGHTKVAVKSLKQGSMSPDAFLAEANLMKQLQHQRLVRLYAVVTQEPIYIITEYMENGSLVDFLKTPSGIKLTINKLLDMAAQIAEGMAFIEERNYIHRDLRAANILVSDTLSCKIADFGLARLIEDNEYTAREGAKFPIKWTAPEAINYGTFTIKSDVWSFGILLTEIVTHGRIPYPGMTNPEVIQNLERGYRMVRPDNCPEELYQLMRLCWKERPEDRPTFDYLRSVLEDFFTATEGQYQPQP

pIC50 (EGFR) | pIC50 (Btk) | pIC50 (Lck) | Compound
> 7.00 | > 7.00 | > 7.00 | CN(C)C/C=C/C(=O)N1CC[C@@H](Oc2n[nH]c3nccc(Nc4ccc(Oc5ccccc5)cc4)c23)C1 [compound 14, (2E)-4-(dimethylamino)-1-[(3R)-3-({4-[(4-phenoxyphenyl)amino]-1H-pyrazolo[3,4-b]pyridin-3-yl}oxy)pyrrolidin-1-yl]but-2-en-1-one]
> 7.00 | > 7.00 | 6.00 to 7.00 | CN(C)C/C=C/C(=O)N1CC[C@@H](Nc2n[nH]c3ncnc(Oc4ccc(Oc5ccccc5)cc4)c23)C1 [compound 39]
6.00 to 7.00 | > 7.00 | 6.00 to 7.00 | N#C/C(=C\C1CCC1)C(=O)N1CC[C@@H](Nc2n[nH]c3nccc(Oc4ccc(Oc5ccccc5)cc4)c23)C1 [compound 27, (2E)-3-cyclobutyl-2-[(E)-(3R)-3-{[4-(4-phenoxyphenoxy)-1H-pyrazolo[3,4-b]pyridin-3-yl]amino}pyrrolidine-1-carbonyl]prop-2-enenitrile]
6.00 to 7.00 | > 7.00 | > 7.00 | N#CCC(=O)N1CC[C@@H](Nc2n[nH]c3nccc(Oc4ccc(Oc5ccccc5)cc4)c23)C1 [compound 44]
5.00 to 6.00 | > 7.00 | > 7.00 | CN(C/C=C/C(=O)N1CCC[C@H]1CNc1n[nH]c2nccc(Oc3ccc(Oc4ccccc4)cc3)c12)C1CC1 [compound 36]
< 5.00 | 6.00 to 7.00 | < 5.00 | CN(C/C=C/C(=O)N1CC[C@@H](Nc2n[nH]c3nccc(Oc4ccc(C(=O)Nc5ccncn5)cc4)c23)C1)C1CC1 [compound 64]
< 5.00 | > 7.00 | 5.00 to 6.00 | CN(C/C=C/C(=O)N1CC[C@@H](Nc2n[nH]c3nccc(Oc4ccc(C(=O)Nc5ccccn5)cc4)c23)C1)C1CC1 [compound 55]
5.00 to 6.00 | > 7.00 | 5.00 to 6.00 | CN(C)C/C=C/C(=O)N1CC[C@@H](Nc2n[nH]c3nccc(Oc4cccc(Oc5ccccc5)c4)c23)C1 [compound 12, (2E)-4-(dimethylamino)-1-[(3R)-3-{[4-(3-phenoxyphenoxy)-1H-pyrazolo[3,4-b]pyridin-3-yl]amino}pyrrolidin-1-yl]but-2-en-1-one]
< 5.00 | 6.00 to 7.00 | 6.00 to 7.00 | CCC(=O)N1CC[C@@H](Nc2n[nH]c3nccc(Oc4ccc(C(=O)Nc5nc6ccccc6[nH]5)cc4)c23)C1 [compound 69]
6.00 to 7.00 | > 7.00 | 6.00 to 7.00 | CN(C)C/C=C/C(=O)N1CCC[C@@H](Nc2n[nH]c3nccc(Oc4cccc(Oc5ccccc5)c4)c23)C1 [compound 13, (2E)-4-(dimethylamino)-1-[(3R)-3-{[4-(3-phenoxyphenoxy)-1H-pyrazolo[3,4-b]pyridin-3-yl]amino}piperidin-1-yl]but-2-en-1-one]
< 5.00 | > 7.00 | 5.00 to 6.00 | Cc1ccnc(NC(=O)c2ccc(Oc3ccnc4[nH]nc(N[C@@H]5CCCN(C(=O)C6(C)CCOC6)C5)c34)cc2)c1 (stereo partly drawn) [compound 89, 4-[(3-{[(3R)-1-(3-methyloxolane-3-carbonyl)piperidin-3-yl]amino}-1H-pyrazolo[3,4-b]pyridin-4-yl)oxy]-N-(4-methylpyridin-2-yl)benzamide]
5.00 to 6.00 | > 7.00 | 6.00 to 7.00 | CC(C)c1ccnc(NC(=O)c2ccc(Oc3ccnc4[nH]nc(N[C@@H]5CCN(C(=O)/C=C/CN(C)C6CC6)C5)c34)cc2)c1 [compound 61]
6.00 to 7.00 | 6.00 to 7.00 | > 7.00 | N#CCNC(=O)c1cc(Nc2n[nH]c3nccc(Oc4ccc(Oc5ccccc5)cc4)c23)ccn1 [compound 65]
< 5.00 | > 7.00 | 5.00 to 6.00 | CN(C)c1ccnc(NC(=O)c2ccc(Oc3ccnc4[nH]nc(N[C@@H]5CCN(C(=O)/C=C/CN(C)C6CC6)C5)c34)cc2)c1 [compound 68]
6.00 to 7.00 | > 7.00 | > 7.00 | CN(C)C/C=C/C(=O)N1CCCC(c2n[nH]c3nccc(Oc4ccc(Oc5ccccc5)cc4)c23)C1 (stereo not drawn) [compound 32, (2E)-4-(dimethylamino)-1-{3-[4-(4-phenoxyphenoxy)-1H-pyrazolo[3,4-b]pyridin-3-yl]piperidin-1-yl}but-2-en-1-one]
< 5.00 | 6.00 to 7.00 | 5.00 to 6.00 | CN(C/C=C/C(=O)N1CC[C@@H](Nc2n[nH]c3nccc(Oc4ccc(Oc5ccccc5)cc4C#N)c23)C1)C1CC1 [compound 35, 2-[(3-{[(3R)-1-[(2E)-4-[cyclopropyl(methyl)amino]but-2-enoyl]pyrrolidin-3-yl]amino}-1H-pyrazolo[3,4-b]pyridin-4-yl)oxy]-5-phenoxybenzonitrile]
5.00 to 6.00 | > 7.00 | 6.00 to 7.00 | CCC(=O)N1CC[C@@H](Nc2n[nH]c3nccc(Nc4ccc(C(=O)Nc5cc(C(F)(F)F)ccn5)cc4)c23)C1 [compound 70]
> 7.00 | > 7.00 | 6.00 to 7.00 | CN(C)C/C=C/C(=O)N1CC[C@@H](Oc2n[nH]c3nccc(Nc4cccc(Oc5ccccc5)c4)c23)C1 [compound 17, (2E)-4-(dimethylamino)-1-[(3R)-3-({4-[(3-phenoxyphenyl)amino]-1H-pyrazolo[3,4-b]pyridin-3-yl}oxy)pyrrolidin-1-yl]but-2-en-1-one]
5.00 to 6.00 | < 5.00 | < 5.00 | CN(C)C/C=C/C(=O)N1CC[C@@H](Nc2n[nH]c3nccc(Oc4cccc(Nc5ccncn5)c4)c23)C1 [compound 20, (2E)-4-(dimethylamino)-1-[(3R)-3-[(4-{3-[(pyrimidin-4-yl)amino]phenoxy}-1H-pyrazolo[3,4-b]pyridin-3-yl)amino]pyrrolidin-1-yl]but-2-en-1-one]
5.00 to 6.00 | > 7.00 | 6.00 to 7.00 | CN(C/C=C/C(=O)N1CC[C@@H](Nc2n[nH]c3nccc(Oc4ccc(C(=O)Nc5cc(C6CC6)ccn5)cc4)c23)C1)C1CC1 [compound 60]
6.00 to 7.00 | > 7.00 | 6.00 to 7.00 | CN(C/C=C/C(=O)N1CC[C@@H](Nc2n[nH]c3nccc(Oc4ccc(C(=O)Nc5cc(OC6CC6)ccn5)cc4)c23)C1)C1CC1 [compound 76, (R,E)-N-(4-cyclopropoxypyridin-2-yl)-4-(3-(1-(4-(cyclopropyl(methyl)amino)but-2-enoyl)pyrrolidin-3-ylamino)-1H-pyrazolo[3,4-b]pyridin-4-yloxy)benzamide]
5.00 to 6.00 | > 7.00 | 6.00 to 7.00 | Cc1ccnc(NC(=O)c2ccc(Oc3ccnc4[nH]nc(N[C@@H]5CCCN(C(=O)C6CCN(C)CC6)C5)c34)cc2)c1 [compound 92, 4-[(3-{[(3R)-1-(1-methylpiperidine-4-carbonyl)piperidin-3-yl]amino}-1H-pyrazolo[3,4-b]pyridin-4-yl)oxy]-N-(4-methylpyridin-2-yl)benzamide]
5.00 to 6.00 | > 7.00 | 6.00 to 7.00 | CN(C/C=C/C(=O)N1CC[C@@H](Nc2n[nH]c3nccc(Oc4ccc(C(=O)Nc5cc(C(F)(F)F)ccn5)cc4)c23)C1)C1CC1 [compound 33, 4-[(3-{[(3R)-1-[(2E)-4-[cyclopropyl(methyl)amino]but-2-enoyl]pyrrolidin-3-yl]amino}-1H-pyrazolo[3,4-b]pyridin-4-yl)oxy]-N-[4-(trifluoromethyl)pyridin-2-yl]benzamide]
6.00 to 7.00 | 6.00 to 7.00 | > 7.00 | NC(=O)c1cc(Nc2n[nH]c3nccc(Oc4ccc(Oc5ccccc5)cc4)c23)ccn1 [compound 59]
6.00 to 7.00 | > 7.00 | > 7.00 | CN(C/C=C/C(=O)N1CC[C@@H](Nc2n[nH]c3nccc(Nc4ccc(Oc5ccccc5)cc4)c23)C1)C1CC1 [compound 23, (2E)-4-[cyclopropyl(methyl)amino]-1-[(3R)-3-({4-[(4-phenoxyphenyl)amino]-1H-pyrazolo[3,4-b]pyridin-3-yl}amino)pyrrolidin-1-yl]but-2-en-1-one]
5.00 to 6.00 | > 7.00 | 6.00 to 7.00 | CCC(=O)N1CC[C@@H](Nc2n[nH]c3nccc(Oc4ccc(C(=O)Nc5cc(C(F)(F)F)ccn5)cc4)c23)C1 [compound 66]
